One series addresses T1, endogenous NOD1 (Homo sapiens, UniProt Q9Y239).
T1 construct: Compound activity on endogenous NOD1 and NOD2 receptors was determined; host or cells: HCT116
T1 sequence (Q9Y239 1-953): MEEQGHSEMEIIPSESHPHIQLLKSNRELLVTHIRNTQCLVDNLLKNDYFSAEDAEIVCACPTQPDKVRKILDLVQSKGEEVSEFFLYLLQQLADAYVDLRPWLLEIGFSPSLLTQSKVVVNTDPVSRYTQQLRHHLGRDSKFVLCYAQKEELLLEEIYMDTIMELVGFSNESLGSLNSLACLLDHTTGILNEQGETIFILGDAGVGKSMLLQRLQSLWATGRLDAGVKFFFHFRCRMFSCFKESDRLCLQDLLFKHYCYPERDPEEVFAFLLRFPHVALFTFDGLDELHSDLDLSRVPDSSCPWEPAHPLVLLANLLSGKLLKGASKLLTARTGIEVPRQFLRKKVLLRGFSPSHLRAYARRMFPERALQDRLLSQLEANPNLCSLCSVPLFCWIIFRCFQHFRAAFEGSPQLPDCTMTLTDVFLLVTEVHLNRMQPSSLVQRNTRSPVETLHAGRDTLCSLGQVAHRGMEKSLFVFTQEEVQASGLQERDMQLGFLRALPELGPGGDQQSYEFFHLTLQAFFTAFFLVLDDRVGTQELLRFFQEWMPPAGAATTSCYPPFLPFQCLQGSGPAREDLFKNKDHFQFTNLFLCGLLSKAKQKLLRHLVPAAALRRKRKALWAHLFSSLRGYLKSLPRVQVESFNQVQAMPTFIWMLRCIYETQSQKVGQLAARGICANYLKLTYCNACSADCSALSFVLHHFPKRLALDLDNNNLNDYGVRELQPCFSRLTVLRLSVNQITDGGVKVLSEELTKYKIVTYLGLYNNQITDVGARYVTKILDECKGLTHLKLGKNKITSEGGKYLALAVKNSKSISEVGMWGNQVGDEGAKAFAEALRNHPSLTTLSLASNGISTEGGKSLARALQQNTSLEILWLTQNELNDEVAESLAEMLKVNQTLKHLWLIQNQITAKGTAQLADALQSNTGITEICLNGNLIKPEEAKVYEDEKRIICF
Put plainly: Tri-DAP-stimulated IL-8 release in HCT116 cells. The series is classed as cell-based. As to conditions: HCT116, increasing compound concentrations 0.005–1 µM, Tri-DAP 0.6–75 µg/mL.

For the next series, the target named is T2, TNFR1 (Homo sapiens, UniProt P19438).
T2 construct: TNFR1 (TNFα stimulated IL-8 secretion in 293/hNOD1 cells); host or cells: 293/hNOD1 (HEK293)
T2 sequence (P19438 30-455): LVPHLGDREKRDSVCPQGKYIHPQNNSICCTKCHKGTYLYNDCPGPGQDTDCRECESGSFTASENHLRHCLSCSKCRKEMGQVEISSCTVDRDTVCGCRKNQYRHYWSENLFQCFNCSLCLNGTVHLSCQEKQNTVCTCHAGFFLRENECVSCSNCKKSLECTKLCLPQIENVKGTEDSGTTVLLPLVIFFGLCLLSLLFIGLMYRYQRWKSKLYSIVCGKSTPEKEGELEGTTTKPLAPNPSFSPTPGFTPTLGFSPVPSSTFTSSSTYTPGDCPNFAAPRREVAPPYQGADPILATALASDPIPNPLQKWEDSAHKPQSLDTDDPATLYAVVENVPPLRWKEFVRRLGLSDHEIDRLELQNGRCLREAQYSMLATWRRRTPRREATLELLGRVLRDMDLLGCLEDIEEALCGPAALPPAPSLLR
Put plainly: TNFα-stimulated IL-8 release in 293/hNOD1 cells. It is filed as cell-based. As to conditions: IL-8 released into medium. As for the experimental part: (§1) Inhibitors of iE-DAP-stimulated IL-8 release were screened in a 1536-well assay in which 293/hNOD1 cells (5000 cells/well) in DMEM high glucose medium supplemented with 0.1% FBS and 10 µg/mL Blasticidin S were stimulated with 60 ng/mL (200 nM) iE-DAP (EC80) in the presence of 10 µM compounds. After 24 hours the amount of IL-8 secreted into the medium was determined by homogeneous time resolved fluorescence (HTRF) assay by the direct addition of a 1∶1 mix of europium cryptate and XL665-conjugated anti-IL-8 antibodies according to the manufacturer’s instructions (Cisbio). Fluorescence was measured after 2 hours in a ViewLux imager using UMB-AMC excitation and 618–671 nm emission filters (Perkin Elmer). […] Inhibition of TNFR1-induced IL-8 release was performed with 293/hNOD1 cells stimulated with 20 ng/mL (∼EC95) rhTNFα.
(§2) A high-throughput screen of about 2.2 million compounds was conducted for inhibitors of the NOD1 signaling pathway using suppression of iE-DAP stimulated IL-8 secretion in HEK293 cells stably expressing human NOD1 (293/hNOD1 cells). […] These assays were chosen to assess the selectivity of hits because the signaling pathways activated by these receptors converge at the level of the TAB/TAK1/IKK complex.

A short description of series [1]: Permeability across an artificial membrane. It is filed as in vitro ADME. The following applies: PAMPA. From the text:
Physicochemical analyses of compounds were completed at GSK.
(In general: The PAMPA barrier holds no transporters, so it reflects passive diffusion.)

The target in series [2] is T3, NOD1 (Homo sapiens, UniProt Q9Y239).
T3 sequence (Q9Y239 1-953): T1 sequence (Q9Y239 1-953)
Put plainly: iE-DAP-stimulated IL-8 release in 293/hNOD1 cells. It is filed as cell-based. Here is the method:
as §1, §2

Series [3] deals with NOD1. As to the kind of experiment: Tri-DAP stimulated IL-8 release in HT-29 cells. The series is classed as cell-based, human. The following applies: HT-29, 50 µg/mL Tri-DAP 24 hours, same supernatants. Here is the method:
(§3) For assay, cells were seeded into 96 well plates (90,000 cells/well) in DMEM containing 1% FBS and pre-incubated with compounds for 1 hour before addition of either 25 µg/mL Tri-DAP or 1 µg/mL MDP. The level of IL-8 released into medium after 24-hour incubation was determined by HTRF assay (Cisbio) as described above and fluorescence measured on an Envision model 2102 multilabel plate reader (Perkin Elmer). The activity of compounds against NOD1-induced type I interferon response was determined by inhibition of Tri-DAP stimulated IP-10 secretion in HT-29 cells, maintained in the same medium as for HCT116 cells. The HT-29 cells were seeded into 96 well plates (60,000 cells/well) in DMEM with 1% FBS, pre-incubated with compounds for 1 hour and stimulated for 24 hours with 50 µg/mL Tri-DAP. The concentration of IL-8 released into the medium was measured by HTRF as above, IP-10 was measured using the IP-10/CXCL10 Quantikine ELISA kit (R&D Systems), and IFNβ was measured using the MA6000 human IFN-β tissue culture kit (Meso Scale Discovery).

For a further series, the target named is T4, endogenous NOD2 (Homo sapiens, UniProt Q9HC29).
T4 construct: Compound activity on endogenous NOD1 and NOD2 receptors was determined; host or cells: HCT116
T4 sequence (Q9HC29 whole entry): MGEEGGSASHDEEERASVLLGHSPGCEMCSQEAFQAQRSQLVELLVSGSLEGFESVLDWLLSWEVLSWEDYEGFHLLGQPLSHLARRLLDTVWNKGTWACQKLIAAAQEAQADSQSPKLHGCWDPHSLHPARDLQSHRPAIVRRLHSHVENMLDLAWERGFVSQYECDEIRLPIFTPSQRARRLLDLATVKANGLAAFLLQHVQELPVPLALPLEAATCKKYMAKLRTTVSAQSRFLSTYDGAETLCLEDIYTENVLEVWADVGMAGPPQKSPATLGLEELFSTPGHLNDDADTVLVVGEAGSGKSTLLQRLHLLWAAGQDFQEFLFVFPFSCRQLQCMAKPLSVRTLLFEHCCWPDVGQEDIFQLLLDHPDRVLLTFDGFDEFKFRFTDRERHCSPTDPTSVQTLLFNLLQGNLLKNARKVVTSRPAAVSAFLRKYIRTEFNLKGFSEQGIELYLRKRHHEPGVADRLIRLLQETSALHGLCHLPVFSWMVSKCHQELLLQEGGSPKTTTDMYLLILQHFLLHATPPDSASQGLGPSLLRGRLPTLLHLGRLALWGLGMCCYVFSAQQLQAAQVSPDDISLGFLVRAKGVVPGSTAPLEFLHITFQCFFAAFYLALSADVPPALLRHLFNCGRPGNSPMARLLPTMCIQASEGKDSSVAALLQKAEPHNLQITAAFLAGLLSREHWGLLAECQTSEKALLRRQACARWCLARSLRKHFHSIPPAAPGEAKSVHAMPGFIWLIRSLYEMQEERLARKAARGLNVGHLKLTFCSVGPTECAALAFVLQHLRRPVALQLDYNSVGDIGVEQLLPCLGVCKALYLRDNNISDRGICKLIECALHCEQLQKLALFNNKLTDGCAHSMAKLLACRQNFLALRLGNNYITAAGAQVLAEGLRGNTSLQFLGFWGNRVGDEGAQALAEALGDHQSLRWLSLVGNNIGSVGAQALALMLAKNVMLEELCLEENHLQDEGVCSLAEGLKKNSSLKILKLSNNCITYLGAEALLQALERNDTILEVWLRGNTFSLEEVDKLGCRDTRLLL
As to the kind of experiment: MDP-stimulated IL-8 release in HCT116 cells. The series is classed as cell-based. The following applies: for IC50: human colon carcinoma cells, IL-8 released into medium. As for the experimental part: as §3

[4] abbreviates: HEK293 stably expressing human NOD1, IL-8 released into medium, read-out: IC50 293/hNOD1 iE-DAP.

Here are results for five compounds from article PMC4013053, “Identification of Selective Small Molecule Inhibitors of the Nucleotide-Binding Oligomerization Domain 1 (NOD1) Signaling Pathway” (PLoS ONE, 2014).

Like-named read-outs stand apart in the source and are kept apart here. Some results are limits rather than exact numbers.

The term Papp denotes the rate of passage across a membrane or cell layer, normalised by area and donor concentration. Read a high Papp as fast passage. Consider `Cc1ccc(S(=O)(=O)Nc2cccc(C(=O)Nc3ccc4nc(C)sc4c3)c2)cc1` [Compound 16], for which the “effect on Tri-DAP concentration response (IL-8)” value at endogenous NOD1 is “progressive reduction in both the apparent EC50 and maximum response of Tri-DAP”. Moreover, the IC50 at TNFR1 was above 30000 nM; at NOD1 [2] (setting [4]), 400 nM; on NOD1 [2] (iE-DAP-stimulated IL-8 production in 293/hNOD1 cells, SAR figures, read-out: NOD1 XC50), 430 ± 100 nM; in the series with NOD1 [3] it was 40 nM. The compound also registered a Papp in series [1] of 22 ×10⁻⁶ cm/s.
Take `Cc1nc2ccccc2c(=O)n1-c1ccc(Cl)c(NS(=O)(=O)c2ccccc2F)c1` [Compound 22]: at endogenous NOD1, the “effect on Tri-DAP concentration response (IL-8)” value was “progressive reduction in both the apparent EC50 and maximum response of Tri-DAP”. For the same compound, the IC50 on TNFR1 was above 50000 nM; at NOD1 [2] (setting [4]) it was 60 nM; in the series with NOD1 [3], 30 nM; at endogenous NOD2 it was above 15000 nM.
Consider `CCc1ccc(S(=O)(=O)Nc2cc(-n3c(C)nc4ccccc4c3=O)ccc2F)s1` [GSK223], for which the IC50 on TNFR1 was above 50000 nM; on NOD1 [2] (setting [4]), 1000 nM; on endogenous NOD2, above 50000 nM. This compound registered a Papp in series [1] of 49 ×10⁻⁶ cm/s. For the same compound, the “greatest inhibition of MDP-stimulated IL-8 release” value on endogenous NOD2 (HCT116, at high concentrations) is 30%.
Turning to `Cc1nc2ccc(NC(=O)c3cccc(NS(=O)(=O)c4ccc(F)cc4)c3)cc2s1` [GSK966], the IC50 at TNFR1 is above 50000 nM; on NOD1 [2] (setting [4]) it was 3500 nM. Moreover, the Papp in series [1] is 30 ×10⁻⁶ cm/s.
Regarding `Cn1c(=O)[nH]c(=O)c2c1nc(CCSc1ccccc1)n2Cc1ccccc1` [SB711], the IC50 was above 50000 nM on TNFR1, 600 nM at NOD1 [2] (setting [4]) and above 50000 nM on endogenous NOD2.
